Source: patent publication US11396517B1, “Exo-aza spiro inhibitors of menin-MLL interaction” (Janssen Pharmaceutica NV, priority 2017, dated 2022)
pIC50: −log10 of the molar value. Read-outs that look alike come from different tables or passages of the source.

Columns and labels:
K562 [1] = experiment: Proliferation assay A (spheroid assay) K562 control cell line; type: cell-based; conditions: Homo sapiens, 192 h; K562 cells (MLL wildtype control), 8 d, AUC of confluence against time; read-out: (3a) Spheroid assay K562 Assay A
Description: (§1) 3a) Proliferation Assay A
(§2) The anti-proliferative effect of menin/MLL protein/protein interaction inhibitor test compounds was assessed in human leukemia cell lines. The cell lines MV-4-11 and MOLM14 harbor MILL translocations and express the MILL fusion proteins MLL-AF4 and MLL-AF9, respectively, as well as the wildtype protein from the second allele. […] K562 was used as a control cell line containing two MLL wildtype alleles in order to exclude compounds that display general cytotoxic effects.
MV-4-11 and MOLM14 were cultured in RPMI-1640 (Sigma Aldrich) supplemented with 10% fetal bovine serum (HyClone), 2 mM L-glutamine (Sigma Aldrich) and 50 μg/ml gentamycin (Gibco). […]
In order to assess the anti-proliferative effects, 1,500 MV-4-11, 300 MOLM14 or 750 K562 cells were seeded in 200 μl media per well in 96-well round bottom, ultra-low attachment plates (Costar, catalogue number 7007). […] Spheroid like growth was monitored in real-time by live-cell imaging (IncuCyteZOOM, Essenbio, 4× objective) acquiring one image every four hours for 8 d. Confluence (%) as a measure of spheroid size was determined using an integrated analysis tool.
In order to determine the cumulative effect of the test compounds over time, the area under the curve (AUC) in a plot of confluence against time was calculated. […]

MOLM14 [2] = experiment: Proliferation assay A (spheroid assay) MOLM14; type: cell-based, human; conditions: MOLM14 cells, 8 d, AUC of confluence against time, absolute IC50, read-out: (3a) Spheroid assay MOLM14 (IC50(μM)) Assay A
Description: as §1, §2
(§3) MV-4-11 and MOLM14 were cultured in RPMI-1640 (Sigma Aldrich) supplemented with 10% fetal bovine serum (HyClone), 2 mM L-glutamine (Sigma Aldrich) and 50 μg/ml gentamycin (Gibco). K562 were propagated in RPMI-1640 (Sigma Aldrich) supplemented with 20% fetal bovine serum (HyClone), 2 mM L-glutamine (Sigma Aldrich) and 50 μg/ml gentamycin (Gibco).
(§4) In order to assess the anti-proliferative effects, 1,500 MV-4-11, 300 MOLM14 or 750 K562 cells were seeded in 200 μl media per well in 96-well round bottom, ultra-low attachment plates (Costar, catalogue number 7007). Cell seeding numbers were chosen based on growth curves to ensure linear growth throughout the experiment. Test compounds were added at different concentrations and the DMSO content was normalized to 0.3%. Cells were incubated for 8 d at 37° C. and 5% CO2. Spheroid like growth was monitored in real-time by live-cell imaging (IncuCyteZOOM, Essenbio, 4× objective) acquiring one image every four hours for 8 d. Confluence (%) as a measure of spheroid size was determined using an integrated analysis tool.
In order to determine the cumulative effect of the test compounds over time, the area under the curve (AUC) in a plot of confluence against time was calculated. Confluence at the beginning of the experiment (t=0) was used as baseline for the AUC calculation.
Absolute IC50 values were calculated according to the following procedure: % Control=(AUC sample/AUC control)*100
AUC control mean AUC of control values (cells without compound/DMSO as vehicle control)
A non-linear curve fit was applied using the least squares (ordinary) fit method to the plot of % control versus compound concentration. Based on this, the absolute IC50 value (half maximal inhibitory concentration of the test compound causing an anti-proliferative effect of 50% relative to the vehicle control) was calculated.

MV-4-11 [3] = experiment: Proliferation assay A (spheroid assay) MV-4-11; type: cell-based, human; conditions: MV-4-11 cells, 8 d, AUC of confluence against time, absolute IC50, read-out: (3a) Spheroid assay MV-4-11 (IC50(μM)) Assay A
Method in brief: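 Spheroid growth in ultra-low-attachment round-bottom wells (1,500 MV-4-11, 300 MOLM14 or 750 K562 cells), compound titration at 0.3% DMSO, 8 d at 37° C. Confluence imaged every 4 h; AUC from t=0 baseline expressed as % of DMSO control and fitted for absolute IC50.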

menin = molecular target: T1, menin (Homo sapiens, UniProt O00255, T541A); experiment: Menin/MLL homogenous time-resolved fluorescence (HTRF) assay; type: binding
T1 construct: Menin (a.a. 1-610-6×his tag)
T1 sequence (O00255 with tags, fused parts or gaps T541A): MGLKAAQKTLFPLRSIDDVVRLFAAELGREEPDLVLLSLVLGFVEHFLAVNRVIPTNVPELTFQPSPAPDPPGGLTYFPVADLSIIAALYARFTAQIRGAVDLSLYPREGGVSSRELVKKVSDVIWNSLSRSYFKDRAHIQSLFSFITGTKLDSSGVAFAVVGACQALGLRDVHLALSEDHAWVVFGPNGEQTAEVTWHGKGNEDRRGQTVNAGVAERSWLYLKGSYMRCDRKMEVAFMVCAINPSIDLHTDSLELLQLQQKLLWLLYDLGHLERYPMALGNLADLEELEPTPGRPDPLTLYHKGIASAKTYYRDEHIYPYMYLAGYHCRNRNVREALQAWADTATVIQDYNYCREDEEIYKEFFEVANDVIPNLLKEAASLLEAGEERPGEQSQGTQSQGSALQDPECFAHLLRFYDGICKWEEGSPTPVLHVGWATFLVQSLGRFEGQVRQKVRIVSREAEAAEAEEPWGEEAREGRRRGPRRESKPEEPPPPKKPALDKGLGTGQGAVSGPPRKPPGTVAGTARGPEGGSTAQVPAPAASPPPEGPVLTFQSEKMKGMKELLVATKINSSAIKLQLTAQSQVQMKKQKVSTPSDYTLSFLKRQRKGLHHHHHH
Method in brief: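 Terbium-labeled menin (aa 1-610, His-tagged; […]) preincubated 5 min with compound, then 75 nM FITC-MBM1 peptide for 15 min, ambient, Tris pH 7.5, 0.5% DMSO. HTRF 520/490 ratio; 11-point 3-fold titration; IC50 from % inhibition fit.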

K562 [4] = experiment: Proliferation assay B (spheroid assay) K562 control cell line; type: cell-based; conditions: Homo sapiens, 192 h; K562 cells (MLL wildtype control), confluence at day 8; read-out: (3b) Spheroid assay K562 Assay B
Description: 3b) Proliferation Assay B
as §2, §3
as §4, with “MOLM14 cells” for “MOLM14”, “measured” for “monitored”, “images at day 8.” for “one image every four hours for 8 d.”
In order to determine the effect of the test compounds over time, the confluence in each well as a measure of spheroid size, was calculated. Confluence […] at the beginning of the experiment (t=0) was used as baseline for the calculation.
Absolute IC50 values were calculated as percent change in confluence as follows:
LC=Low Control: cells treated with 1 μM of the cytotoxic agent staurosporin
HC=High Control: Mean confluence (%) (DMSO treated cells) % Effect=100−(100*(Sample−LC)/(HC−LC))
To determine the IC50 a curve is fitted to the plot of % Effect vs Log 10 compound concentration using a sigmoidal fit with a variable slope and fixing the maximum to 100% and the minimum to 0%.

MOLM14 [5] = experiment: Proliferation assay B (spheroid assay) MOLM14; type: cell-based, human; conditions: MOLM14 cells, confluence at day 8, absolute IC50, read-out: (3b) Spheroid assay MOLM14 (IC50(μM)) Assay B
Method in brief: (§5)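 Leukemia cells grown as spheroids in ultra-low-attachment round-bottom wells with compound at 0.3% DMSO for 8 d at 37 °C. Confluence imaged at day 8 as spheroid size, normalized between DMSO and 1 μM staurosporine controls; absolute IC50 from sigmoidal fit with bounds fixed at 0 and 100%.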

MV-4-11 [6] = experiment: Proliferation assay B (spheroid assay) MV-4-11; type: cell-based, human; conditions: MV-4-11 cells, confluence at day 8, absolute IC50, read-out: (3b) Spheroid assay MV-4--11 (IC50(μM)) Assay B
Method in brief: as §5

[7] = location 1, read-out: (2) location 1 Menin HTRF assay (IC50 (nM))
[8] = location 2, read-out: (2) location 2 Menin HTRF assay (IC50 (nM))

## FC(F)(F)Cc1cc2c(N3CC4(CC[C@@H](NCc5ccccc5)C4)C3)ncnc2s1 (single isomer, unassigned) [Compound 47]
K562 [1]
  pIC50: < 4.82
MOLM14 [2]; Homo sapiens, MOLM-14, 192 h
  IC50: 1.02 µM
MV-4-11 [3]; Homo sapiens, MV4-11, 192 h
  IC50: 0.14 µM
menin; [7]
  IC50: 15.5 nM

## CNC(=O)c1ccc(NC2CC3(CCN(c4ncnc5sc(CC(F)(F)F)cc45)C3)C2)cc1OCCN(C)C (single isomer, unassigned) [Compound 77]
K562 [4]
  pIC50: 5.11
MOLM14 [5]; Homo sapiens, MOLM-14, 192 h
  IC50: 0.63 µM
menin; [8]
  IC50: 1.8 nM
MV-4-11 [6]; Homo sapiens, MV4-11, 192 h
  IC50: 0.19 µM

## O=c1[nH]c2ccc(CNC3CCC4(C3)CN(c3ncnc5sc(CC(F)(F)F)cc35)C4)cc2[nH]1 (single isomer, unassigned) [Compound 109]
MOLM14 [5]; Homo sapiens, MOLM-14, 192 h
  IC50: 2.26 µM
MOLM14 [2]
  IC50: 3.24 µM
MV-4-11 [3]
  IC50: 0.24 µM
menin; [8]
  IC50: 1.6 nM

## CN1CC=C(c2cc(NC3CC4(CCN(c5ncnc6sc(CC(F)(F)F)cc56)C4)C3)ccc2C(C)(C#N)C#N)CC1 (single isomer, unassigned) [Compound 246]
K562 [4]
  pIC50: 5.40
MOLM14 [5]
  IC50: 0.13 µM
menin; [8]
  IC50: 206 nM
MV-4-11 [6]
  IC50: 0.26 µM

## N#CCc1ccc(NC2CC3(CCN(c4ncnc5sc(CC(F)(F)F)cc45)C3)C2)cc1 (single isomer, unassigned) [Compound 307]
MOLM14 [5]; Homo sapiens, MOLM-14, 192 h
  IC50: 2.44 µM
MOLM14 [2]
  IC50: 3.38 µM
MV-4-11 [3]
  IC50: 1.05 µM
menin; [8]
  IC50: 3.1 nM

## FC(F)(F)Cc1cc2c(N3CCC4(CC(NCc5ccccc5)C4)C3)ncnc2s1 (stereo not drawn) [Compound 48]
K562 [1]
  pIC50: < 4.82
MOLM14 [2]; Homo sapiens, MOLM-14, 192 h
  IC50: 1.58 µM
MV-4-11 [3]; Homo sapiens, MV4-11, 192 h
  IC50: 0.35 µM
menin; [7]
  IC50: 12 nM

## FC(F)(F)Cc1cc2c(N3CCC4(CC(Nc5ccc(-c6nnc[nH]6)cc5)C4)C3)ncnc2s1 (stereo not drawn) [Compound 370]
K562 [4]
  pIC50: 5.14
MOLM14 [5]; Homo sapiens, MOLM-14, 192 h
  IC50: 1.57 µM
MV-4-11 [6]; Homo sapiens, MV4-11, 192 h
  IC50: 0.35 µM

## O=C(NCC(F)(F)F)c1ccc(NC2CC3(CCN(c4ncnc5sc(CC(F)(F)F)cc45)C3)C2)cc1 (stereo not drawn) [Compound 371]
K562 [4]
  pIC50: 5.19
MOLM14 [5]; Homo sapiens, MOLM-14, 192 h
  IC50: 0.3 µM
MV-4-11 [6]; Homo sapiens, MV4-11, 192 h
  IC50: 0.08 µM
